The text below walks through data of US20180066018A1, “CONFORMATIONALLY STABLE ANALOGS OF THE RESPONSE SELECTIVE C5A AGONIST EP67” (Board Of Regents Of The University Of Nebraska, priority 2015, published 2018).

Entries after “also recorded” stand apart in the source; their conditions may differ. Non-standard residues stand in square brackets, D forms with d. No end group written: not given here. NMeL = CN[C@@H](CC(C)C)C(=O)O; Aib = CC(C)(N)C(=O)O

Data set [1] in a line: NMR (ROESY) determination of cis/trans conformer populations of the Met-Xaa peptide bond. The format is physicochemical. To be noted: in solution. From the text:
NMR spectroscopy is the best method for detection of cis/trans prolyl isomerization in a peptide. AAx-Pro cis/trans isomerization (where AAx is any adjacent amino acid residue) is detectable via two resonance frequencies in the NMR spectra per nuclear spin in the proximity of the isomerizing bond. Rotating-Frame NOE Spectroscopy (ROESY) was used to analyze EP67 (150 msec mixing time) in DMSO-d6. Characteristic NOE patterns readily discriminate the resonances arising from the cis and trans conformers allowing for specific assignments of each. Also, the relative populations of each conformer can be determined by integration of the separate peak volumes. Short ^1H-^1H distances (NOEs) between the alpha proton of AAx and the alpha proton of Pro are diagnostic of the cis AAx-Pro peptide bond. On the other hand, an observed NOE between the alpha proton of AAx and the delta protons of Pro are diagnostic of the trans AAx-Pro peptide bond.
where AA and AA′ are adjacent amino acids.
Analog peptides can be analyzed by NMR spectroscopy to verify structure and ascertain cis/trans conformer ratios of the Pro-substituted analogs. Special attention should be paid to the angles formed about α-carbon […]) and carbonyl carbon (Ψ and ω bonds) in the Met residue to the N-terminus of the substituted Pro residues. […]

For data set [2], the system named is human monocytes. As to the kind of experiment: Differentiation/maturation of human monocytes into macrophages in vitro (light microscopy). The format is cell-based. The procedure: To assess the binding of EP67 analogs to APCs and subsequent biological activity on these cells, peptides were assayed for their ability to elicit the activation of monocytes in vitro and to drive the differentiation/maturation of human monocytes into macrophages and subsequently dendritic cells.
Briefly, monocytes were harvested from human peripheral blood mononuclear cells. The human monocytes were incubated at 37 degrees C. for 24 hrs in media the presence of PBS, 100 μg/ml of EP67, 100 μg/ml of EP144, and 100 μg/ml of EP145. The cells were also incubated with for 48 hrs with sEP67 as a control. The cells were then photographed under light microscopy at 20× or 40× magnification. […] Panels A-C & G are at 20× magnification and Panels D-E are at 40× magnification.

In data set [3] the test system is human and mouse macrophages. To be noted: cited from earlier work.
Data set [4] relates to human and porcine monocytes. To be noted: cited from earlier work.
Data set [5] relates to C5aR-bearing macrophages vs. C5aR-bearing neutrophils. As to the kind of experiment: Bioselectivity: cytokine release from macrophages vs. MPO release from neutrophils. The format is cell-based. As to conditions: antilog[(−Δmacrophage)−(−Δneutrophil)], relative to C5a set at 1. An excerpt:
2. Potency. Analog potency will be measured by half maximal effective concentration (EC50); i.e., the concentration of the analog to induce a response halfway between baseline and maximum effect. EC50 values for each analog be determined in two separate assays: cytokine release from macrophages and MPO release from neutrophils.
In macrophages, we will measure the release of the TH1 cytokines IL-6, TNFα, and INFγ in accordance to our previously published methods (Morgan et al. Enhancement of In Vivo and In Vitro Immune Functions by a Conformationally Biased, Response-Selective Agonist of Human C5a: Implications for a Novel Adjuvant in Vaccine Design. Vaccine 28:463-469, 2010; Morgan et al. A novel adjuvant for vaccine development in the aged. Vaccine 28:8275-8279, 2010). These cytokines are consistently released in readily measurable amounts from macrophages (as well as monocytes and dendritic cells) and will be representative of what we have seen with EP67 and consistent with the nature of the supporting data presented above. Briefly, macrophages will be incubated in the presence of various concentrations of analogs (10, 50, 100, 200 μg/ml) in standard cell culture conditions for 6, 12, and 24, hrs. […]
3. […] Analog selectivity for cytokine release from macrophages vs. MPO release from neutrophils will be determined by the following equation: […]

[6] abbreviates: 100 μg/ml, 37 degrees C., 24 hrs.

In the case of “YSFKDM(Aib)LaR (YSFKDM[Aib]L[dA]R-OH) [EP144, EP67 analog with Pro substituted with 2-aminoisobutyric acid and MeL with Leu]”, the “cis:trans conformer ratio” value in data set [1] is recorded as “all-trans”. Further, the “differentiation of human monocytes to macrophages (adhesion to substrate and flattening)” value (“differentiation of human monocytes” for short) in data set [2] (setting [6]) is “drive the differentiation of human monocytes to macrophages; also recorded: monocytes mature into macrophages”.

Regarding “Tyr-Ser-Phe-Lys-Asp-Met-Pro-(MethylLeu)-D-Ala-Arg (YSFKDMP[NMeL][dA]R) [EP67]”, in data set [3], the “release of Th1 cytokines (IL-1β, IL-6, IL-8, IL-12, TNFα, IFNγ)” value was “induces the release of T helper type 1 (Th1) cytokines” and the “release of Th2 cytokines (IL-2, IL-4, IL-5, IL-10)” value is recorded as “few T helper type 2 (Th2) cytokines”. In data set [4], the “necrosis and apoptosis of the macrophages/dendritic cells once generated” value was “decreases necrosis and apoptosis”. Besides, in data set [4] (human and porcine monocytes), the “differentiation of monocytes to macrophages and dendritic cells” value was “induces the differentiation of human and porcine monocytes to macrophages and dendritic cells”. The “selectivity factor for macrophage activity over that of neutrophils” value in data set [5] came to 2951. Besides, the “differentiation of human monocytes” value in data set [2] (setting [6]) was “monocytes mature into macrophages”.

As for “YSFKDM(dmP)(MeL)aR (YSFKDMXLAR; 5,5'-dimethylproline, N-methyl-Leu, D-Ala; MOD_RES (7)..(7) Xaa is 5,5′-dimethylproline; MOD_RES (8)..(8) N-methyl Leu; MOD_RES (9)..(9) D-Ala) [EP145, EP67 analog with Pro substituted with 5,5′-dimethylproline]”, the “differentiation of human monocytes” value in data set [2] (setting [6]) is “drive the differentiation of human monocytes to macrophages; also recorded: monocytes mature into macrophages”.

Turning to “M(MeL)RFPDaYKS (M[NMeL]RFPD[dA]YKS) [sEP67]”, the “differentiation of human monocytes” value in data set [2] (control peptide, 48 hrs) is “do not exhibit this phenotype”.

B1: C5a: short (74 residues in human) glycoprotein generated by enzymatic cleavage of complement C5 (protein, UniProt P01031 678-751, looked up)
C5a anaphylatoxin: TLQKKIEEIAAKYKHSVVKKCCYDGACVNNDETCEQRAARISLGPRCIKAFTECCVVASQLRANISHKDMQLGR
modifications: C5a anaphylatoxin
notes: short (74 residues in human) glycoprotein generated by enzymatic cleavage of complement C5
As to B1, the “selectivity factor for macrophage activity over that of neutrophils” value in data set [5] turned out to be 1.
